Assay results taken from paper PMC10620772, “Design, synthesis, and biological evaluation of new pyrimidine-5-carbonitrile derivatives as novel anti-cancer, dual EGFR^WT/COX-2 inhibitors with docking studies” (RSC Advances, 2023).
“And” between values parts separate entries of the source, which are not always exact repeats. Equal values may be shown once. “Also recorded” adds a separate entry of the source.

How the values were obtained:
Type in all cases: cell-based, human
COLO 205 = test: NCI60 antitumor screening
UO-31 = test: NCI60 antitumor screening
SK-MEL-2 = test: NCI60 antitumor screening; conditions: Homo sapiens; 10 μM single dose; SK-MEL-2 (melanoma); read-out: growth inhibition percent (GI%)
EKVX = test: NCI60 antitumor screening
SR = test: NCI60 antitumor screening
MDA-MB-231/ATCC = test: NCI60 antitumor screening; conditions: Homo sapiens; 10 μM single dose; MDA-MB-231/ATCC (breast cancer); read-out: growth inhibition percent (GI%)
DU-145 = test: NCI60 antitumor screening
Colo 205 cells = test: Cell cycle analysis by flow cytometry; conditions: treated at IC50
Procedure: Inhibition of the EGFR^WT/COX-2 pathway has been linked to alterations in cell survival and proliferation, as reported.[22,40]
Cell Culture Unit, VACSERA, Cairo, Egypt, conducted an apoptosis investigation.
Results reported as DNA% of each cell cycle phase: (S, G1, G2, M). The following reported procedure was followed; (1) applying compounds 4e and 4f on Colo 205 cell line separately, then the Colo 205 was cultured. (2) The cells were collected in PBS diluted by nanopure water as a single cell suspension (by adding trypsine to dissociate cells). (3) Centrifuge cells by 500×g for 5 min, decant the supernatant. (4) Using PBS wash the cells, gently tapping the tube to resuspend cells. (5) In ice bath fix the cells in 66% cooled ethanol, stored in +4 °C 2 h at least (6) put the sample on bench at room temperature, inverted tube gently to resuspend cells. (7) Centrifuge, discard supernatant, wash and resuspend cells once more time. (8) Gently adding PI solution with RNAase (preventing RNA staining and interfering results), (9) Incubate samples in R.T, dark conditions for 20 min (10) transfer samples into ice, dark conditions. (11) Genteelly tapping to resuspend cells which settled during incubation step. (12) Put sample into flow cytometer and run it. Detect the fluorescence of protium iodide in FL2.[41,42] Additional assessment of the pro-apoptotic effect was performed by using Annexin V-FITC and propidium iodide.

BT-549 = test: NCI60 antitumor screening
NCI-H226 = test: NCI60 antitumor screening
HOP-92 = test: NCI60 antitumor screening
SK-OV-3 = test: NCI60 antitumor screening
HCT-116 = test: NCI60 antitumor screening
SW-620 = test: NCI60 antitumor screening
NCI-H23 = test: NCI60 antitumor screening
OVCAR-8 = test: NCI60 antitumor screening
UACC-62 = test: NCI60 antitumor screening
OVCAR-4 = test: NCI60 antitumor screening
SK-MEL-28 = test: NCI60 antitumor screening; conditions: Homo sapiens; 10 μM single dose; SK-MEL-28 (melanoma); read-out: growth inhibition percent (GI%)
NCI/ADR-RES = test: NCI60 antitumor screening
HCC-2998 = test: NCI60 antitumor screening
NCI60 cell lines panel = test: NCI60 antitumor screening, full panel
Procedure, shortened: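 Percent growth inhibition (GI%) was recorded for each of the NCI60 lines, spanning leukaemia, lung, colon, CNS, melanoma, ovarian, renal, prostate and breast cancers, after exposure to compounds at one concentration, 10 μM.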

RPMI-8226 = test: NCI60 antitumor screening
LOX IMVI = test: NCI60 antitumor screening
RXF 393 = test: NCI60 antitumor screening
[1] = Homo sapiens, OVCAR-4, five-dose

N#Cc1c(-c2ccc(F)cc2)nc(SCc2ccc(F)cc2)nc1N1CCNCC1 [4f, 2-((4-Fluorobenzyl)thio)-4-(4-fluorophenyl)-6-(piperazin-1-yl) pyrimidine-5-carbonitrile] gave an IC50 (COLO 205; Homo sapiens, COLO 205) of 1.83 µM, a GI50 (COLO 205; Homo sapiens, COLO 205, five-dose) of 1.83 µM and a CC50 (COLO 205; Homo sapiens, COLO 205, five-dose, read-out: LC50 (the source's name)) of 6.34 µM. For the same compound, the inhibition at 10 µM (COLO 205; Homo sapiens, 10 μM single dose, COLO 205 (colon cancer), read-out: growth inhibition percent (GI%)) was > 100%, the TGI (COLO 205; five-dose) was 3.40 µM and the GI% (UO-31; 10 μM one-dose) was 91.74%. The inhibition at 10 µM (UO-31; Homo sapiens, 10 μM single dose, UO-31 (renal cancer), read-out: growth inhibition percent (GI%)) was 91.7%, the inhibition at 10 µM (SK-MEL-2) was > 100% and the GI% (EKVX; 10 μM one-dose) was 98.71%. For the same compound, the GI50 (EKVX; Homo sapiens, EKVX, five-dose) was 13.1 µM, the LC50 (EKVX; Homo sapiens, EKVX, five-dose) was 52.9 µM and the inhibition at 10 µM (EKVX; Homo sapiens, 10 μM single dose, EKVX (non-small cell lung cancer), read-out: growth inhibition percent (GI%)) was 98.7%. It also gave a TGI (EKVX; five-dose) of 26.40 µM, a GI50 (SR; Homo sapiens, SR, five-dose) of 2.18 µM and a CC50 (SR; Homo sapiens, SR, five-dose, read-out: LC50 (the source's name)) of 17.5 µM. For the same compound, the inhibition at 10 µM (SR; Homo sapiens, 10 μM single dose, SR (leukaemia), read-out: growth inhibition percent (GI%)) was > 100%, the TGI (SR; five-dose) was 5.07 µM and the inhibition at 10 µM (MDA-MB-231/ATCC) was > 100%. For the same compound, the GI50 (DU-145; Homo sapiens, DU-145, five-dose) was 16.8 µM, the CC50 (DU-145; Homo sapiens, DU-145, five-dose, read-out: LC50 (the source's name)) was 58.1 µM and the inhibition at 10 µM (DU-145; Homo sapiens, DU-145, read-out: growth inhibition percent (GI%)) was > 100%. For the same compound, the TGI (DU-145; five-dose) was 31.30 µM, the “% G0–G1” value (Colo 205 cells; DNA content) was 55.01% and the “% G2/M” value (Colo 205 cells; DNA content) was 5.39%. For the same compound, the “% S” value (Colo 205 cells; DNA content) was 39.6%, the Cell cycle comment (Colo 205 cells) was “Cell growth arrest@ G1” and the “Increase of cells at G0–G1 phase vs control” value (Colo 205 cells) was ~1.1 fold. The GI50 (BT-549; Homo sapiens, BT-549, five-dose) was 10.7 µM, the CC50 (BT-549; Homo sapiens, BT-549, five-dose, read-out: LC50 (the source's name)) was 49.4 µM and the inhibition at 10 µM (BT-549; Homo sapiens, 10 μM single dose, BT-549 (breast cancer), read-out: growth inhibition percent (GI%)) was 17.3%. The TGI (BT-549; five-dose) was 23.00 µM, the GI50 (NCI-H226; Homo sapiens, NCI-H226, five-dose) was 15.9 µM and the CC50 (NCI-H226; Homo sapiens, NCI-H226, five-dose, read-out: LC50 (the source's name)) was 80.3 µM. The inhibition at 10 µM (NCI-H226; Homo sapiens, 10 μM single dose, NCI-H226 (non-small cell lung cancer), read-out: growth inhibition percent (GI%)) was 23.1%, the TGI (NCI-H226; five-dose) was 35.70 µM and the GI50 (HOP-92; Homo sapiens, HOP-92, five-dose) was 7.64 µM. The CC50 (HOP-92; Homo sapiens, HOP-92, five-dose, read-out: LC50 (the source's name)) was 53.4 µM, the inhibition at 10 µM (HOP-92; Homo sapiens, 10 μM single dose, HOP-92 (non-small cell lung cancer), read-out: growth inhibition percent (GI%)) was > 100% and the TGI (HOP-92; five-dose) was 22.10 µM. It also gave a GI50 (SK-OV-3; Homo sapiens, SK-OV-3, five-dose) of 16 µM, a CC50 (SK-OV-3; Homo sapiens, SK-OV-3, five-dose, read-out: LC50 (the source's name)) of 55.4 µM and an inhibition at 10 µM (SK-OV-3; Homo sapiens, 10 μM single dose, SK-OV-3 (ovarian cancer), read-out: growth inhibition percent (GI%)) of 43.3%. It also gave a TGI (SK-OV-3; five-dose) of 29.80 µM, a GI50 (HCT-116; Homo sapiens, HCT-116, five-dose) of 4.15 µM and a CC50 (HCT-116; Homo sapiens, HCT-116, five-dose, read-out: LC50 (the source's name)) of 42.8 µM. The inhibition at 10 µM (HCT-116; Homo sapiens, 10 μM single dose, HCT-116 (colon cancer), read-out: growth inhibition percent (GI%)) was > 100%, the TGI (HCT-116; five-dose) was 15.60 µM and the GI50 (SW-620; Homo sapiens, SW-620, five-dose) was 5.97 µM. The CC50 (SW-620; Homo sapiens, SW-620, five-dose, read-out: LC50 (the source's name)) was 48.7 µM, the inhibition at 10 µM (SW-620; Homo sapiens, 10 μM single dose, SW-620 (colon cancer), read-out: growth inhibition percent (GI%)) was > 100% and the TGI (SW-620; five-dose) was 19.30 µM. For the same compound, the GI50 (NCI-H23; Homo sapiens, NCI-H23, five-dose) was 16 µM, the CC50 (NCI-H23; Homo sapiens, NCI-H23, five-dose, read-out: LC50 (the source's name)) was 57.5 µM and the inhibition at 10 µM (NCI-H23; Homo sapiens, 10 μM single dose, NCI-H23 (non-small cell lung cancer), read-out: growth inhibition percent (GI%)) was > 100%. It also gave a TGI (NCI-H23; five-dose) of 30.40 µM, a GI50 (OVCAR-8; Homo sapiens, OVCAR-8, five-dose) of 13.2 µM and a CC50 (OVCAR-8; Homo sapiens, OVCAR-8, five-dose, read-out: LC50 (the source's name)) of 70.6 µM. For the same compound, the inhibition at 10 µM (OVCAR-8; Homo sapiens, 10 μM single dose, OVCAR-8 (ovarian cancer), read-out: growth inhibition percent (GI%)) was > 100%, the TGI (OVCAR-8; five-dose) was 30.50 µM and the GI50 (UACC-62; Homo sapiens, UACC-62, five-dose) was 15.9 µM. For the same compound, the CC50 (UACC-62; Homo sapiens, UACC-62, five-dose, read-out: LC50 (the source's name)) was 56.2 µM, the inhibition at 10 µM (UACC-62; Homo sapiens, 10 μM single dose, UACC-62 (melanoma), read-out: growth inhibition percent (GI%)) was > 100% and the TGI (UACC-62; five-dose) was 29.90 µM. The GI50 (OVCAR-4; [1]) was 16.5 µM, the LC50 (lethal concentration, 50% cell kill) (OVCAR-4; [1]) was 68.7 µM and the inhibition at 10 µM (OVCAR-4; Homo sapiens, 10 μM single dose, OVCAR-4 (ovarian cancer), read-out: growth inhibition percent (GI%)) was > 100%. For the same compound, the TGI (OVCAR-4; five-dose) was 33.60 µM, the inhibition at 10 µM (SK-MEL-28) was > 100% and the GI50 (NCI/ADR-RES; Homo sapiens, NCI/ADR-RES, five-dose) was 13.7 µM. For the same compound, the CC50 (NCI/ADR-RES; Homo sapiens, NCI/ADR-RES, five-dose, read-out: LC50 (the source's name)) was 67.5 µM, the inhibition at 10 µM (NCI/ADR-RES; Homo sapiens, 10 μM single dose, NCI/ADR-RES (ovarian cancer), read-out: growth inhibition percent (GI%)) was > 100% and the TGI (NCI/ADR-RES; five-dose) was 30.40 µM. For the same compound, the GI50 (HCC-2998; Homo sapiens, HCC 2998, five-dose) was 2.53 µM, the CC50 (HCC-2998; Homo sapiens, HCC 2998, five-dose, read-out: LC50 (the source's name)) was 6.27 µM and the inhibition at 10 µM (HCC-2998; Homo sapiens, 10 μM single dose, HCC-2998 (colon cancer), read-out: growth inhibition percent (GI%)) was > 100%. For the same compound, the TGI (HCC-2998; five-dose) was 3.22 µM, the “One-dose activity over the NCI60 panel” value (NCI60 cell lines panel; 10 μM) was “lethal to most of cell lines; also recorded: Lethal to almost all NCI60 cell lines” and the inhibition at 10 µM (NCI60 cell lines panel; Homo sapiens, 10 μM single dose, mean over NCI60 cell lines, read-out: Mean growth inhibition percent (GI%)) was > 100%. The GI50 (NCI60 cell lines panel; Homo sapiens, average of all cell lines, read-out: Full panel MG-MID (GI50)) was 13.5 µM, the “Full panel MG-MID (TGI)” value (NCI60 cell lines panel; average of all cell lines) was 26.45 μM and 26.45 ^e μM and the GI50 (RPMI-8226; Homo sapiens, RPMI-8226, five-dose) was 6.75 µM. The CC50 (RPMI-8226; Homo sapiens, RPMI-8226, five-dose, read-out: LC50 (the source's name)) was 74.4 µM, the inhibition at 10 µM (RPMI-8226; Homo sapiens, 10 μM single dose, RPMI-8226 (leukaemia), read-out: growth inhibition percent (GI%)) was > 100% and the TGI (RPMI-8226; five-dose) was 24.60 µM. For the same compound, the GI50 (LOX IMVI; Homo sapiens, LOX IMVI, five-dose) was 2.28 µM, the CC50 (LOX IMVI; Homo sapiens, LOX IMVI, five-dose, read-out: LC50 (the source's name)) was 22.7 µM and the inhibition at 10 µM (LOX IMVI; Homo sapiens, 10 μM single dose, LOX IMVI (melanoma), read-out: growth inhibition percent (GI%)) was > 100%. The TGI (LOX IMVI; five-dose) was 5.69 µM, the CC50 (RXF 393; Homo sapiens, RXF 393, five-dose, read-out: LC50 (the source's name)) was 51.5 µM and the inhibition at 10 µM (RXF 393; Homo sapiens, 10 μM single dose, RXF 393 (renal cancer), read-out: growth inhibition percent (GI%)) was > 100%. For the same compound, the TGI (RXF 393; five-dose) was 21.40 µM.
